Laboratory results reported in BindingDB's records for doi:10.1021/jm00007a013 (Chul Research Center, 1995).

Assay: In vitro inhibition of DHT (dihydrotestosterone) on proliferation of androgen-sensitive cancer Schionogi (SC-3) cells

| SMILES | IC50 |
| --- | --- |
| CC(C)CN(C=O)[C@H]1CCC2C3CC[C@H]4N(C)C(=O)CC[C@]4(C)C3CC[C@@]21C (stereo partly drawn) [N-Isobutyl-N-((4aR,6aS,7S,11aR)-1,4a,6a-trimethyl-2-oxo-hexadecahydro-indeno[5,4-f]quinolin-7-yl)-formamide] | 994 nM |
| CCCCN(C=O)[C@H]1CCC2C3CC[C@H]4N(C)C(=O)CC[C@]4(C)C3CC[C@@]21C (stereo partly drawn) [N-Butyl-N-((4aR,6aS,7S,11aR)-1,4a,6a-trimethyl-2-oxo-hexadecahydro-indeno[5,4-f]quinolin-7-yl)-formamide] | 166 nM |
| CN1C(=O)CC[C@]2(C)C3CC[C@@]4(C)C(CC[C@@H]4N(C=O)CCC(C)(C)C)C3CC[C@@H]12 (stereo partly drawn) [N-(3,3-Dimethyl-butyl)-N-((4aR,6aS,7S,11aR)-1,4a,6a-trimethyl-2-oxo-hexadecahydro-indeno[5,4-f]quinolin-7-yl)-formamide] | 171 nM |
| CN(C=O)[C@H]1CCC2C3CC[C@H]4N(C)C(=O)CC[C@]4(C)C3CC[C@@]21C (stereo partly drawn) [N-Methyl-N-((4aR,6aS,7S,11aR)-1,4a,6a-trimethyl-2-oxo-hexadecahydro-indeno[5,4-f]quinolin-7-yl)-formamide] | 1480 nM |
| CCN(CC)C(=O)[C@H]1CCC2C3CC[C@H]4N(C)C(=O)CC[C@]4(C)C3CC[C@@]21C (stereo partly drawn) [(4aR,6aS,7S,11aR)-1,4a,6a-Trimethyl-2-oxo-hexadecahydro-indeno[5,4-f]quinoline-7-carboxylic acid diethylamide] | 463 nM |
| CC(C)N(C=O)[C@H]1CCC2C3CC[C@H]4N(C)C(=O)CC[C@]4(C)C3CC[C@@]21C (stereo partly drawn) [N-Isopropyl-N-((4aR,6aS,7S,11aR)-1,4a,6a-trimethyl-2-oxo-hexadecahydro-indeno[5,4-f]quinolin-7-yl)-formamide] | 162 nM |
| CCCN(C=O)[C@H]1CCC2C3CC[C@H]4N(C)C(=O)CC[C@]4(C)C3CC[C@@]21C (stereo partly drawn) [N-Propyl-N-((4aR,6aS,7S,11aR)-1,4a,6a-trimethyl-2-oxo-hexadecahydro-indeno[5,4-f]quinolin-7-yl)-formamide] | 989 nM |

Compounds with a lower IC50, results first:

| IC50 | SMILES |
| --- | --- |
| 96 nM | CCCCCN(C=O)[C@H]1CCC2C3CC[C@H]4N(C)C(=O)CC[C@]4(C)C3CC[C@@]21C (stereo partly drawn) [N-Pentyl-N-((4aR,6aS,7S,11aR)-1,4a,6a-trimethyl-2-oxo-hexadecahydro-indeno[5,4-f]quinolin-7-yl)-formamide] |
| 90 nM | CCC(CC)N(C=O)[C@H]1CCC2C3CC[C@H]4N(C)C(=O)CC[C@]4(C)C3CC[C@@]21C (stereo partly drawn) [N-(1-Ethyl-propyl)-N-((4aR,6aS,7S,11aR)-1,4a,6a-trimethyl-2-oxo-hexadecahydro-indeno[5,4-f]quinolin-7-yl)-formamide] |
| 89 nM | CCCCCCN(C=O)[C@H]1CCC2C3CC[C@H]4N(C)C(=O)CC[C@]4(C)C3CC[C@@]21C (stereo partly drawn) [N-Hexyl-N-((4aR,6aS,7S,11aR)-1,4a,6a-trimethyl-2-oxo-hexadecahydro-indeno[5,4-f]quinolin-7-yl)-formamide] |
| 50 nM | CCCCCCCCN(C=O)[C@H]1CCC2C3CC[C@H]4N(C)C(=O)CC[C@]4(C)C3CC[C@@]21C (stereo partly drawn) [N-Octyl-N-((4aR,6aS,7S,11aR)-1,4a,6a-trimethyl-2-oxo-hexadecahydro-indeno[5,4-f]quinolin-7-yl)-formamide] |
| 46 nM | CC(C)CCN(C=O)[C@H]1CCC2C3CC[C@H]4N(C)C(=O)CC[C@]4(C)C3CC[C@@]21C (stereo partly drawn) [N-(3-Methyl-butyl)-N-((4aR,6aS,7S,11aR)-1,4a,6a-trimethyl-2-oxo-hexadecahydro-indeno[5,4-f]quinolin-7-yl)-formamide] |
| 58 nM | CCCCCCCN(C=O)[C@H]1CCC2C3CC[C@H]4N(C)C(=O)CC[C@]4(C)C3CC[C@@]21C (stereo partly drawn) [N-Heptyl-N-((4aR,6aS,7S,11aR)-1,4a,6a-trimethyl-2-oxo-hexadecahydro-indeno[5,4-f]quinolin-7-yl)-formamide] |
